Results taken from patent publication US7511036B2, “Dihydrothiazine prodrugs of thiazolium agents” (Synvista Therapeutics, Inc., priority 2003, dated 2009).
Where a name gives a salt, the structure may show the parent alone. Each block holds one compound with its values, some of them ahead of it.

Key:
[1] = system: collagen in cardiovascular tissues; experiment: Mass of collagen in cardiovascular tissues after treatment; conditions: in vivo
Source text: (§1) Cardiovascular risk correlates more closely with the systolic and the pulse pressure than with the diastolic pressure. In diabetic patients, the cardiovascular risk profile of diabetic patients is strongly correlated to duration of diabetes, glycemic control and blood pressure. Structural matrix proteins contribute to the function of vessels and the heart, and changes in the physical behavior of cardiovascular walls are believed to be important determinants of circulatory function. In elderly individuals, the loss of compliance in the aorta leads to systolic hypertension and isolated systolic hypertension, which in turn expands the arterial wall and thereby diminishes the dynamic range of elasticity. […] These studies indicate that prodrugs of such thiazolium compounds should have a similar effect.

TGFbeta = experiment: In situ hybridization studies, TGFbeta expression; assay type: in vivo
Source text: as §1

dog model for diabetes = experiment: Dog model for diabetes, indicators of ventricular elasticity; assay type: in vivo; conditions: indicator of ventricular elasticity
Source text: as §1

Rhesus monkeys [2] = conditions: drug treated vs. control eye, baseline and pilocarpine-stimulated; see the '112 application; cited from earlier work
Rhesus monkeys [3] = conditions: pilocarpine-stimulated accommodation; see the '112 application; cited from earlier work
Type IV collagen = experiment: In situ hybridization studies, Type IV collagen expression; assay type: in vivo
Source text: as §1

[4] = system: elderly patients with pulse pressures greater than 60 mm Hg; experiment: Phase IIa clinical trial; assay type: in vivo, human; conditions: for left ventricular mass: Phase IIa clinical trial, echocardiography
Source text: as §1
Pulse pressure is the difference between systolic and diastolic blood pressure. In a young human, systolic pressure is typically 120 mm Hg and diastolic pressure is 80 mm Hg, resulting in a pulse pressure of 40 mm Hg. With age, in many individuals pulse pressure increases, largely due to the increase in systolic pressure that results from stiff vessel disease. In individuals with pulse pressure greater than 60 mm Hg there is an increased risk of death from cardiovascular morbidities. […] This decrease in pulse pressure was believed to be due primarily to the effect of the agent on lowering the systolic blood pressure.
When the heart pumps blood into the vascular system, the ability of the arteries to expand helps to push blood through the body. When arteries become stiff, as they do in the natural process of aging, the ability of the arteries to expand is diminished which also has consequences for the heart. The heart has to work harder to pump the blood into the stiff arteries, and it eventually hypertrophies (enlarges in size) to accomplish this. A hypertrophied heart is an inefficient pump, and is one of the disorders that leads to congestive heart failure. […] Such a compound can be provided by administration of an N-formyl thiazine compound, (i.e., 2-hydroxy-5,6-dimethyl-2-phenyl-2,3-dihydro-(1,4)thiazine-4-carbaldehyde) and conversion of the compound under, for example, acidic conditions in the stomach, to the corresponding thiazolium salt. The potential clinical benefit of this is to lessen the effort that the heart must expend to push blood throughout the body. The effect is also believed to contribute to preventing hypertrophy and subsequent inefficiency of the heart, which inefficiency would contribute to congestive heart failure.
Atherosclerosis is a disease that involves deposition of blood lipids in plaque in the arteries throughout the body. In coronary arteries, accumulation of plaque progressively leads to reduced coronary flow, with occlusion of the arteries causing focal death of cardiac tissue (myocardial infarction, heart attack). If the amount of tissue that dies is large enough, death ensues. […] Reducing local deposits of plaque should eventually lessen the risk of myocardial infarction and death due to heart attacks.

[5] = Conversion of dihydrothiazine to thiazolium chloride under acidic conditions; assay type: physicochemical
Description: The following experiment provides evidence that thiazine structures related to compound la can be converted under acidic conditions to thiazolium structures, and thus can serve as pro-drug forms of thiazolium agents.
Compound Ia (2.48 mmol, 0.620 g) was weighed into a 100 mL round bottom flask equipped with magnetic stir bar. Methanol (40 mL) was added, and the solution was stirred until all solid was dissolved. Aqueous hydrochloric acid was added (1N, 3.968 mmol, 4.0 mL) and the reaction solution stirred at ambient temperature for 48 hours. The methanol was removed in vacuo, and the residue was diluted with 25 mL of distilled water. The aqueous layer was extracted with methyl t-butyl ether (2×20 mL). The aqueous layer was concentrated to dryness in vacuo and the residue was crystallized with acetonitrile, methyl-t-butyl-ether (1:1). The crystals were collected via filtration to give 598 mg (90% yield) of 4,5-dimethyl-3-(2-oxo-2-phenylethyl)-thiazolium chloride. […]
In a 15 mL round bottom flask, stirred with a magnetic stirrer, was charged 36 mg (0.16 mmol) of compound Ib (prepared as described by Thornalley et al., Biochemical Pharmacology, vol. 57,pp 303-308, 1999), 2 mL of 1% hydrochloric acid and 2 mL of Ethyl Acetate. Since there was no reaction as monitored by HPLC, 2 mL of 5N Hydrochloric acid, and 2 mL of methanol was added, and the flask was heated to 35° C. […]

Structure (SMILES): Cc1sc[n+](CC(=O)c2ccccc2)c1C [3-[2-phenyl-2-oxoethyl]-4,5-dimethyl-thiazolium salt]
- mass of collagen in cardiovascular tissues [1]: reduction in the mass of collagen
- expression of TGFbeta (TGFbeta): reduces the expression
- end diastolic pressure (dog model for diabetes): returned to a value at about the mid-point between the disease impaired value and the value for control dogs
- end diastolic volume (dog model for diabetes): returned to a value at about the mid-point between the disease impaired value and the value for control dogs
- improvement in fluid outflow facility (ophthalmologic function) (Rhesus monkeys [2]): improvement has been illustrated
- improvement in accommodation (Rhesus monkeys [3]): Improvement in accommodation has been illustrated
- expression of Type IV collagen (Type IV collagen): reduces the expression
- left ventricular mass [4]: reduction of left ventricular mass
- left ventricular mass ([4]; listed as 3-[2-phenyl-2-oxoethyl]-4,5-dimethyl-thiazolium chloride salt): reduce left ventricular mass
- stiffness of arteries (ratio of stroke volume (ml) to pulse pressure (mm Hg)) ([4]; Phase IIa clinical trials): reverse the stiffness of arteries
- amount of circulating triglycerides (lipids) ([4]; Phase IIa trial): increased the amount of circulating triglycerides
- pulse pressure ([4]; Phase IIa trial, elderly patients with pulse pressures greater than 60 mm Hg, statistically significant): reduced pulse pressure

- conversion to thiazolium under acidic conditions ([5]; 1% hydrochloric acid and ethyl acetate, monitored by HPLC): no reaction
- time until the conversion to thiazolium chloride was finished ([5]; after adding 5N hydrochloric acid and methanol, 35° C., HPLC): about 15 h
Structure (SMILES): O=CN1C=CSC(O)(c2ccccc2)C1 (centres unmarked) [Ib, 2-Hydroxy-2-Phenyl-2,3-Dihydro-(1,4)thiazine-4-carbaldehyde]
